Where two headings read alike, the source gives them in different places.

Consider 13 compounds from US4279887A, “Amides useful as brain imaging agents” (Medi-Physics, Inc., priority 1978, dated 1981).

Data set [1] can be described thus: Bioassay of I-123-labeled compounds: organ distribution of activity 5 minutes after tail vein injection. Type of data set: in vivo, Female Sprague-Dawley rats. Particulars: rat; for Percent Dose in Stomach / Ratio Brain/Blood / Ratio Heart/Blood: 5 min. As for the experimental part:
Bioassays were performed utilizing compounds from the foregoing examples labeled with I-123 in accordance with the method described in Example 18. Female Sprague-Dawley rats weighing approximately 150 g were anesthetized with sodium pentobarbital and were injected in a tail vein with from 0.05 to 1.0 mCi (in a volume of 0.2 to 0.5 ml) of the I-123-labeled compound. Two specimens were utilized for each test.
The animals were sacrificed at 5 minutes post injection, the tails discarded and the amount of activity in various organs determined. Each organ was counted at a standardized geometry with a thallium iodide-activated sodium iodide crystal scintillation counter adjusted for the 159 keV emission of I-123. The organs were also weighed to one thousandth of a gram and the activity calculated as a percent of administered dose per gram organ weight.
The ratio of brain-to-blood activity was calculated as a percent of administered dose per gram. The important determinations are the amount of activity in the brain and the brain/blood ratio. The amount of activity in the stomach is related to loss of the I-123-label. For comparative purposes, I-123 antipyrine was utilized as a standard.

The conditions of data set [2]: I-123 labeled, cited from earlier work.
The mark [3] stands for this setting: in vivo, iv, Percent Dose/g. at 5 min., Blood.
The mark [4] stands for this setting: in vivo, iv, Percent Dose/g. at 5 min., Brain.
Where [5] appears, read: in vivo, iv, Percent Dose/g. at 5 min., Heart.
Where [6] appears, read: i.v., ratio of percent dose per gram.
[7] abbreviates: i.v., stomach activity is related to loss of the I-123 label.

Consider `CNC(=O)c1ccccc1[123I]` [Example 1, N-methyl-o-iodobenzamide], for which, in data set [1] (in vivo, iv), the “Percent Dose in Stomach” value is recorded as 0.94 Percent Dose, the “Ratio Brain/Blood” value was determined as 1.21 and the “Ratio Heart/Blood” value is 1.28. The same compound returned a tissue uptake at 5 min in data set [1] (setting [3]) of 0.86 %ID/g. In data set [1] (setting [4]), this compound gave a tissue uptake at 5 min of 1.04 %ID/g. This compound also came in with a tissue uptake at 5 min in data set [1] (setting [5]) of 1.1 %ID/g.

`NC(=O)c1ccccc1[123I]` [Example 2, o-iodobenzamide]: in data set [1] (in vivo, iv), the “Percent Dose in Stomach” value amounted to 0.93 Percent Dose, the “Ratio Brain/Blood” value is 1.28 and the “Ratio Heart/Blood” value came out at 1.32. Moreover, the tissue uptake at 5 min in data set [1] (setting [3]) is 0.69 %ID/g. Besides, the tissue uptake at 5 min in data set [1] (setting [4]) worked out at 0.88 %ID/g. In addition, in data set [1] (setting [5]), the tissue uptake at 5 min was 0.91 %ID/g.

Consider `CCCCCCNC(=O)c1ccccc1[123I]` [Example 3, N-hexyl-o-iodobenzamide], for which, in data set [1] (in vivo, iv), the “Percent Dose in Stomach” value is reported as 0.86 Percent Dose, the “Ratio Brain/Blood” value stood at 1.05 and the “Ratio Heart/Blood” value is given as 1.21. In data set [1] (setting [3]), this compound came in with a tissue uptake at 5 min of 0.56 %ID/g. The same compound showed a tissue uptake at 5 min in data set [1] (setting [4]) of 0.59 %ID/g. Further, the tissue uptake at 5 min in data set [1] (setting [5]) amounted to 1.04 %ID/g.

In the case of `CCCCCCCCCCCCCCCCCCNC(=O)c1ccccc1[123I]` [Example 5, N-octadecyl-o-iodobenzamide], in data set [1] (in vivo, iv), the “Percent Dose in Stomach” value is recorded as 0.20 Percent Dose, the “Ratio Brain/Blood” value worked out at 0.10 and the “Ratio Heart/Blood” value stood at 0.92. This compound gave a tissue uptake at 5 min in data set [1] (setting [3]) of 0.91 %ID/g. The compound also came in with a tissue uptake at 5 min in data set [1] (setting [4]) of 0.09 %ID/g. Further, the tissue uptake at 5 min in data set [1] (setting [5]) was 0.84 %ID/g.

Regarding `O=C(Nc1ccccc1)c1ccccc1[123I]` [Example 6, o-iodobenzanilide], the “Ratio Brain/Blood” value in data set [1] (setting [6]) is reported as 0.90. In data set [1] (setting [6]), the “Ratio Heart/Blood” value came out at 2.34. Further, the “Percent Dose in Stomach” value in data set [1] (setting [7]) amounted to 1.66 Percent Dose. Also, the tissue uptake at 5 min in data set [1] (in vivo, iv, i.v. tail vein, 5 min post injection, blood, I-123 label, read-out: Percent Dose/g. at 5 min., Blood) amounted to 0.93 %ID/g; in data set [1] (in vivo, iv, i.v. tail vein, 5 min post injection, brain, I-123 label, read-out: Percent Dose/g. at 5 min., Brain), 0.84 %ID/g; in data set [1] (in vivo, iv, i.v. tail vein, 5 min post injection, heart, I-123 label, read-out: Percent Dose/g. at 5 min., Heart) it was 2.18 %ID/g.

For `Cc1cccc(C)c1NC(=O)c1ccccc1[123I]` [Example 7, o-iodobenz-2,6-xylidide], in data set [1] (in vivo, iv), the “Percent Dose in Stomach” value is reported as 0.82 Percent Dose, the “Ratio Brain/Blood” value turned out to be 0.87 and the “Ratio Heart/Blood” value was 1.43. For the same compound, the tissue uptake at 5 min in data set [1] (setting [3]) was 0.69 %ID/g. For the same compound, in data set [1] (setting [4]), the tissue uptake at 5 min came out at 0.6 %ID/g. Also, the tissue uptake at 5 min in data set [1] (setting [5]) was found to be 0.99 %ID/g.

In the case of `O=C(NCc1ccccc1)c1ccccc1[123I]` [Example 8, N-benzyl-o-iodobenzamide], in data set [1] (in vivo, iv), the “Percent Dose in Stomach” value is 0.88 Percent Dose, the “Ratio Brain/Blood” value was 1.00 and the “Ratio Heart/Blood” value is recorded as 2.26. Also, in data set [1] (setting [3]), the tissue uptake at 5 min came out at 0.68 %ID/g. This compound also returned a tissue uptake at 5 min in data set [1] (setting [4]) of 0.68 %ID/g. In addition, the tissue uptake at 5 min in data set [1] (setting [5]) worked out at 1.54 %ID/g.

As to `O=C(NCCc1ccccc1)c1ccccc1[123I]` [Example 9, N-phenethyl-o-iodobenzamide], in data set [1] (in vivo, iv), the “Percent Dose in Stomach” value is 0.82 Percent Dose, the “Ratio Brain/Blood” value is 1.28 and the “Ratio Heart/Blood” value is given as 1.70. Also, the tissue uptake at 5 min in data set [1] (setting [3]) amounted to 0.43 %ID/g. In data set [1] (setting [4]), this compound gave a tissue uptake at 5 min of 0.54 %ID/g. For the same compound, in data set [1] (setting [5]), the tissue uptake at 5 min was determined as 0.73 %ID/g.

Turning to `CN(C)C(=O)c1ccccc1[123I]` [Example 10, N, N-dimethyl-o-iodobenzamide], in data set [1] (in vivo, iv), the “Percent Dose in Stomach” value was determined as 0.93 Percent Dose, the “Ratio Brain/Blood” value is reported as 0.22 and the “Ratio Heart/Blood” value was found to be 0.72. Besides, the tissue uptake at 5 min in data set [1] (setting [3]) was 2.15 %ID/g. The compound also displayed a tissue uptake at 5 min in data set [1] (setting [4]) of 0.48 %ID/g. This compound returned a tissue uptake at 5 min in data set [1] (setting [5]) of 1.54 %ID/g.

For `NC(=O)CNC(=O)c1ccccc1[123I]` [Example 12, o-iodohippuramide], in data set [1] (in vivo, iv), the “Percent Dose in Stomach” value stood at 0.83 Percent Dose, the “Ratio Brain/Blood” value amounted to 1.10 and the “Ratio Heart/Blood” value amounted to 1.31. In data set [1] (setting [3]), this compound registered a tissue uptake at 5 min of 0.84 %ID/g. The compound also registered a tissue uptake at 5 min in data set [1] (setting [4]) of 0.92 %ID/g. In data set [1] (setting [5]), the tissue uptake at 5 min is 0.96 %ID/g.

As for `O=C(NNc1ccccc1)c1ccccc1[123I]` [Example 13, o-iodobenzphenylhydrazide], in data set [1] (in vivo, iv), the “Percent Dose in Stomach” value is reported as 1.10 Percent Dose, the “Ratio Brain/Blood” value is 0.20 and the “Ratio Heart/Blood” value was determined as 0.55. Besides, the tissue uptake at 5 min in data set [1] (setting [3]) was 1.99 %ID/g. In addition, the tissue uptake at 5 min in data set [1] (setting [4]) was 0.39 %ID/g. In data set [1] (setting [5]), the tissue uptake at 5 min came out at 1.09 %ID/g.

For the compound `O=C(NO)c1ccccc1[123I]` [Example 14, o-iodobenzohydramic acid], in data set [1] (in vivo, iv), the “Percent Dose in Stomach” value is listed as 0.96 Percent Dose, the “Ratio Brain/Blood” value came out at 0.57 and the “Ratio Heart/Blood” value turned out to be 0.99. Besides, in data set [1] (setting [3]), the tissue uptake at 5 min stood at 0.95 %ID/g. In addition, in data set [1] (setting [4]), the tissue uptake at 5 min was 0.54 %ID/g. This compound showed a tissue uptake at 5 min in data set [1] (setting [5]) of 0.94 %ID/g.

As for `Cc1c([123I])c(=O)n(-c2ccccc2)n1C` [I^123 -iodoantipyrine, 4-iodoantipyrine], the “Percent Dose in Stomach” value in data set [1] (setting [7]) was 2.32 Percent Dose. Also, in data set [2] (literature), the “concentration in the brain” value is “suboptimal concentration in the brain” and the in vivo deiodination result is “rapid in vivo deiodination”. Moreover, in data set [2] (prior art agent), the “loss of the iodine label in the brain” value is listed as “significant loss of the iodine label in the brain”.
